Source: patent US7754722B2, “Piperazine derivatives and methods of use” (Merck Serono SA, priority 2002, dated 2010)

Each molecule was assayed against T1, FSH receptor (Homo sapiens, UniProt P23945) (assay: FSH assay: cAMP response element luciferase reporter in CHO cells expressing recombinant FSH receptor). Conditions: agonist activity; CHO cells stably transfected with recombinant FSH receptor; luciferase luminescence; log-dose-response curves; incubation 37° C. for 3 hrs 30 min; read-out: ED50 (the source's name).
T1 construct: expressed in transfected cells; host or cells: CHO (Chinese Hamster Ovary) cells, stably transfected, carrying a cAMP response element-luciferase reporter
T1 sequence (P23945 18-695): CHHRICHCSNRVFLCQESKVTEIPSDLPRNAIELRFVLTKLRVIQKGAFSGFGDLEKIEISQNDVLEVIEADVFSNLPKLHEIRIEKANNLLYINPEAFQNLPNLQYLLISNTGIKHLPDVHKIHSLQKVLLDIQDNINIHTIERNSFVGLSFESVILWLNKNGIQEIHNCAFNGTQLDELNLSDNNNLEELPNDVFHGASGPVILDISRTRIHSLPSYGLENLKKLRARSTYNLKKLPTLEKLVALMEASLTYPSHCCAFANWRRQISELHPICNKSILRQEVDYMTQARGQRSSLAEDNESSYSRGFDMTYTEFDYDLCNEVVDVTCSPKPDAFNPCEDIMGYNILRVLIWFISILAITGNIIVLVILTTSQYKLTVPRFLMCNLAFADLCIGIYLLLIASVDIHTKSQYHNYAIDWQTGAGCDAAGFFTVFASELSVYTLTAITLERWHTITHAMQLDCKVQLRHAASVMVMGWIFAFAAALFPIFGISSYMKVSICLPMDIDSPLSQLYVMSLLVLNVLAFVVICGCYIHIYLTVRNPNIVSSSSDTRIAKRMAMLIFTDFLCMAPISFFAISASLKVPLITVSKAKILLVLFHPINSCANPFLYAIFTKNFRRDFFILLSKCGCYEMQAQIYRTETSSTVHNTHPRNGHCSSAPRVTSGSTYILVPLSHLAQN
Assay type: cell-based
Description: Compounds of the invention were tested in the following assay.
All compounds of the invention were stored in 96-well deepwell plates in DMSO at a nominal concentration of 10 μM. Compounds of the invention were screened for agonist activity at the FSH receptor using the recombinant FSH receptor stably transfected and expressed in Chinese Hamster Ovary Cells (CHO cells) essentially as described in the work by Kelton, et al. Molecular and Cellular Endocrinology, 1992, 89, 141-151). […] Thus an agonist at the FSH receptor increases cAMP in the cell which results in activation of the CREB (cAMP) response element binding protein). The substrate for the enzyme (Packard Instrument Company 800 Research Parkway, Meriden, Conn. 06450, USA) was added to the cells after appropriate incubation with the compounds or FSH and the amount of luciferase expressed was measured by quantitating the luminescence produced by the enzyme using a TopCount scintillation/luminescence counter running in single photon counting mode. A compound which acts as an agonist at the receptor should produce light from the treated cells in proportion to its concentration within the incubation. Luminescence should be saturable at high concentrations of the compound.
The compounds of the invention, in deepwell plates (Master plates) as indicated above were loaded on the robotic deck along with the appropriate number of assay plates and daughter plates. A 10 μl aliquot from each master plate was transferred to the corresponding daughter plate and 90 μl of DME/F12 was added and mixed within each well. 20 μl was then removed from the daughter plate and dispensed into the assay plate. After addition of an aliquot of FSH (equivalent to an EC100 response for this hormone to each of three wells on the plate, 80 μl of media (DME/F 12±2% serum) and 100 μl aliquot of cells (4×10^5/ml in the same media) were added and the plate incubated at 37° C. for 3 hrs 30 min. At this time the plate was removed from the incubator and media in each well was aspirated and the cells adhering to the bottom of the plate washed with 300 μl PBS containing 1 mM Ca^2+ and 1 mM Mg^2+. The PBS was aspirated and 100 μl PBS added to each well. 100 μl of Lucite (prepared as described by the manufacturer) was added to each well and the plate was shaken gently for 40 seconds prior to placement in the TopCount plate reader. After allowing 3.5 minutes for the plate to dark-adapt within the machine, the amount of luminescence generated was quantitated using Single Photon Counting mode. The data was transmitted electronically from the TopCount to the robot processing computer terminal and was renamed with an ID corresponding to the original master plate ID. […] LDR (log-dose-response) curves were generated for these compounds in CHO cells containing the FSH receptor and these curves were also compared with those in either cells expressing a different Gs linked receptor or in cells lacking any transfected receptor.
`CCCCCCCCN1CCN(S(=O)(=O)c2cccs2)[C@H](C(=O)Nc2ccc3c(c2)nc(-c2ccncc2)n3CC)C1` [4-octyl-1-(thiophene-2-sulfonyl)-piperazine-2-carboxylic acid (1-ethyl-2-pyridin-4-yl-1H-benzoimidazol-5-yl)amide] was tested, and the EC50 was 0.054 µM.
With `CCCCCCCN1CCN(S(=O)(=O)c2cccs2)[C@H](C(=O)Nc2ccc3c(c2)nc(-c2ccncc2)n3CC)C1` [4-heptyl-1-(thiophene-2-sulfonyl)-piperazine-2-carboxylic acid (1-ethyl-2-pyridin-4-yl-1H-benzoimidazol-5-yl)amide] the EC50 was 0.053 µM.
`CCNC(=O)N1CCN(S(=O)(=O)c2cccs2)[C@H](C(=O)Nc2ccc3c(c2)c2ccccc2n3CC)C1` [4-(thiophene-2-sulfonyl)-piperazine-1,3-dicarboxylic acid 1-ethylamide 3-[(9-ethyl-9H-carbazol-3-yl)amide]] gave an EC50 of 0.877 µM.
`CCn1c2ccccc2c2cc(NC(=O)[C@@H]3CN(C(=O)NCCCn4ccnc4)CCN3S(=O)(=O)c3cccs3)ccc21` [4-(thiophene-2-sulfonyl)-piperazine-1,3-dicarboxylic acid 3-[(9-ethyl-9H-carbazol-3-yl)-amide]1-[(3-imidazol-1-yl-propyl)-amide])] showed an EC50 of 6.47 µM.
For `CCn1c(-c2ccncc2)nc2cc(NC(=O)[C@@H]3CN(CCCSC)CCN3S(=O)(=O)c3cccs3)ccc21` [4-(3-methylsulfanyl-propyl)-1-(thiophene-2-sulfonyl)-piperazine-2-carboxylic acid (1-ethyl-2-pyridin-4-yl-1H-benzoimidazol-5-yl)amide], the EC50 was 14 µM.
